From ChEMBL document CHEMBL5131381, “Design, synthesis, and mechanistic investigations of phenylalanine derivatives containing a benzothiazole moiety as HIV-1 capsid inhibitors with improved metabolic stability” (Eur J Med Chem, 2022)
Active and inactive are the calls of the source. The calls are words filed in the database; no cut-off is given here.

Tests used:
MT4 = assay: Cytotoxicity against mock infected human MT4 cells by MTT assay; assay type: toxicity, cell-based
[1] = tested on: Human immunodeficiency virus 1; assay: Antiviral activity against HIV-1 3B infected in human MT4 cells assessed as protection against virus-induced cytopathic effect by MTT assay; assay type: functional, organism-based; conditions: Human immunodeficiency virus 1, 3B
[2] = Metabolic stability in human plasma assessed as parent compound remaining measured after 120 mins by LC-MS/MS analysis; assay type: ADME, cell-free; conditions: 2 h
[3] = tested on: Human immunodeficiency virus 1; assay: Antiviral activity against HIV-1 NL4-3 Env-deficient pseudotype virus infected in U87/CD4/CCR5 cells assessed as reduction in viral infection in early stage measured after 48 hrs by luciferase activity based single-round infection assay; assay type: functional, organism-based
[4] = tested on: Human immunodeficiency virus 1; assay: Antiviral activity against HIV-1 NL4-3 Env-deficient pseudotype virus infected in U87/CD4/CCR5 cells assessed as reduction in viral infection in late stage measured after 48 hrs by luciferase activity based single-round infection assay; assay type: functional, organism-based
in vitro = conditions: human, liver microsomes

Structure (SMILES)	CC50 (MT4)	EC50 [1]	also measured
CN(C(=O)[C@H](Cc1ccccc1)NC(=O)c1cccc(C(=O)Nc2ccccc2NC(=O)OC(C)(C)C)c1)c1ccc2scnc2c1	> 193 µM		
CN(C(=O)[C@H](Cc1ccccc1)NC(=O)c1cccc(C(=O)Nc2ccc(Br)cc2)c1)c1ccc2scnc2c1	> 204 µM	≥ 186 µM	
CN(C(=O)[C@H](Cc1ccccc1)NC(=O)c1cccc(C(=O)Nc2cccc(F)c2)c1)c1ccc2scnc2c1	> 226 µM	> 226 µM	
CN(C(=O)[C@H](Cc1ccccc1)NC(=O)c1cccc(C(=O)Nc2cccc(NC(=O)OC(C)(C)C)c2)c1)c1ccc2scnc2c1	> 193 µM	> 193 µM	
CN(C(=O)[C@H](Cc1ccccc1)NC(=O)c1cccc(C(=O)Nc2ccncc2)c1)c1ccc2scnc2c1	37.6 µM	≥ 41.4 µM	
CN(C(=O)[C@H](Cc1ccccc1)NC(=O)c1cccc(C(=O)NC2CCN(C(=O)OC(C)(C)C)CC2)c1)c1ccc2scnc2c1	29.3 µM	> 29.3 µM	
CN(C(=O)[C@H](Cc1ccccc1)NC(=O)c1cccc(C(=O)Nc2ccc(Cl)cc2)c1)c1ccc2scnc2c1	> 220 µM	> 220 µM	
CN(C(=O)[C@H](Cc1ccccc1)NC(=O)c1cccc(C(=O)Nc2ccccc2)c1)c1ccc2scnc2c1	> 234 µM	22.4 µM	
COCCNC(=O)c1cccc(C(=O)N[C@@H](Cc2ccccc2)C(=O)N(C)c2ccc3scnc3c2)c1	203 µM	15.7 µM	
CN(C(=O)[C@H](Cc1ccccc1)NC(=O)c1cccc(C(=O)Nc2ccc(N)cc2)c1)c1ccc2scnc2c1		3.57 µM	Stability [2]: Stable; Activity [3]: Active; Activity [4]: Active
CN(C(=O)[C@H](Cc1ccccc1)NC(=O)c1cccc(C(=O)Nc2ccccc2F)c1)c1ccc2scnc2c1	66.4 µM	21.9 µM	
CN(C(=O)[C@H](Cc1ccccc1)NC(=O)c1cccc(C(=O)Nc2ccc(C#N)cc2)c1)c1ccc2scnc2c1	> 224 µM	13.2 µM	
CN(C(=O)[C@H](Cc1ccccc1)NC(=O)c1cccc(C(=O)Nc2ccccc2N)c1)c1ccc2scnc2c1	25.4 µM	> 25.4 µM	
CN(C(=O)[C@H](Cc1ccccc1)NC(=O)c1cccc(C(=O)Nc2ccc(NC(=O)OC(C)(C)C)cc2)c1)c1ccc2scnc2c1	2.23 µM	> 2.23 µM	
CN(C(=O)[C@H](Cc1ccccc1)NC(=O)c1cccc(C(=O)Nc2ccc(F)cc2)c1)c1ccc2scnc2c1	54 µM	31.8 µM	
CN(C(=O)[C@H](Cc1ccccc1)NC(=O)c1cccc(C(=O)N2CCN(C(=O)OC(C)(C)C)CC2)c1)c1ccc2scnc2c1	93.9 µM	13.5 µM	
CN(C(=O)[C@H](Cc1ccccc1)NC(=O)c1cccc(C(=O)Nc2ccc(C(F)(F)F)cc2)c1)c1ccc2scnc2c1	88.2 µM	≥ 39.5 µM	
COc1ccc(NC(=O)c2cccc(C(=O)N[C@@H](Cc3ccccc3)C(=O)N(C)c3ccc4scnc4c3)c2)cc1	> 222 µM	≥ 205 µM	
CN(C(=O)[C@H](Cc1ccccc1)NC(=O)c1cccc(C(=O)Nc2cccc(N)c2)c1)c1ccc2scnc2c1	134 µM	23.7 µM	
C#CCNC(=O)c1cccc(C(=O)N[C@@H](Cc2ccccc2)C(=O)N(C)c2ccc3scnc3c2)c1		5.02 µM	Stability [2]: Stable
C[C@]12CC[C@H]3[C@@H](CCC4=CC(=O)CC[C@@]43C)[C@@H]1CC[C@@H]2O [TESTOSTERONE]			microsomal CLint (in vitro): 82.8 µL/min/mg
Cc1ccc(NC(=O)c2cccc(C(=O)N[C@@H](Cc3ccccc3)C(=O)N(C)c3ccc4scnc4c3)c2)cc1	> 228 µM	41.1 µM	
CN(C(=O)[C@H](Cc1ccccc1)NC(=O)c1cccc(C(=O)Nc2ccc(OC(F)(F)F)cc2)c1)c1ccc2scnc2c1	118 µM	34.9 µM	
O=C(O)Cc1ccccc1Nc1c(Cl)cccc1Cl [DICLOFENAC]			microsomal CLint (in vitro): 372 µL/min/mg
CC(=O)c1ccc(NC(=O)c2cccc(C(=O)N[C@@H](Cc3ccccc3)C(=O)N(C)c3ccc4scnc4c3)c2)cc1	165 µM	> 165 µM	
